In patent US10550127B1, “Indanylaminoazadihydrobenzofuranylacetic acids, pharmaceutical compositions for the treatment of diabetes” (Boehringer Ingelheim International GmbH, priority 2017, dated 2020):
pEC50, pIC50: −log10 of the molar value. Values after ≈ are worked out from the molar mass of the structure shown.

What was measured:
[1] = target: cytochrome P450 2C9-isoenzyme (Homo sapiens (Human), UniProt P11712); assay: Inhibition of CYP-2C9 (diclofenac hydroxylation, human liver microsomes); assay type: in vitro ADME; details: diclofenac 10 μM, 37° C.
Experimental: All assays are carried out on a robotic system in 96 well plates. The final incubation volume contains TRIS buffer (0.1 M), MgCl2 (5 mM), human liver microsomes (0.1 mg/mL), diclofenac (10 μM) and the test compound at five different concentrations or no compound (high control) in duplicate (e.g., highest concentration 10-50 μM with subsequent serial 1:4 dilutions). Following a short preincubation period, reactions are started with the cofactor (NADPH, 1 mM) and stopped by cooling the incubation down to 8° C. and subsequently by addition of one volume of acetonitrile. An internal standard solution—the stable isotope ^13C6-hydroxydiclofenac—is added after quenching of incubations. Peak area analyte (=metabolite formed) and internal standard is determined by LC-MS/MS. The resulting peak area ratio analyte to internal standard in these incubations is compared to a control activity containing no test compound. Within each of the assay runs, the IC50 of a positive control inhibitor (sulfaphenazole) is determined. Experimental IC50 values are calculated by least square regression according to the following equation: % control activity=(100% control activity/(1+(I/IC50)S))−B with I=inhibitor concentration; S=slope factor; B=background activity (lower plateau of the inhibition curve) […]

Aqueous solubility = assay type: physicochemical; details: aqueous buffer, kinetic from dmso stock, buffer pH 2.2, 24 h shaking, 2.5% DMSO
Experimental: The aqueous solubility of the compounds of the invention is determined by comparing the amount dissolved in buffer to the amount in an acetonitrile/water (1/1) solution. Starting from a 10 mM DMSO stock solution aliquots are diluted with acetonitrile/water (1/1) or buffer, respectively. After 24 h of shaking, the solutions are filtrated and analyzed by LC-UV. The amount dissolved in buffer is compared to the amount in the acetonitrile solution.
Solubility is usually being measured from 0.001 to 0.125 mg/mL at a DMSO concentration of 2.5%. If more than 90% of the compound is dissolved in buffer, the value is marked with “>”.

[2] = target: cytochrome P450 2C8-isoenzyme (Homo sapiens (Human), UniProt P10632); assay: Inhibition of CYP-2C8 (amodiaquine deethylation, human liver microsomes); assay type: in vitro ADME; details: amodiaquine 1 μM, 37° C.
Experimental: All assays are carried out on a robotic system in 96 well plates. The final incubation volume contains TRIS buffer (0.1 M), MgCl2 (5 mM), human liver microsomes (0.05 mg/mL), amodiaquine (1 μM) and the test compound at five different concentrations or no compound (high control) in duplicate (e.g. highest concentration 10-50 μM with subsequent serial 1:4 dilutions). Following a short preincubation period, reactions are started with the cofactor (NADPH, 1 mM) and stopped by cooling the incubation down to 8° C. and subsequently by addition of one volume of acetonitrile. An internal standard solution—the stable isotope d5-desethylamodiaquine—is added after quenching of incubations. Peak area analyte (=metabolite formed) and internal standard is determined by LC-MS/MS. The resulting peak area ratio analyte to internal standard in these incubations is compared to a control activity containing no test compound. Within each of the assay runs, the IC50 of a positive control inhibitor (Montelukast) is determined. Experimental IC50 values are calculated by least square regression according to the following equation: % control activity=(100% control activity/(1+(I/IC50)S))−B with I=inhibitor concentration; S=slope factor; B=background activity (lower plateau of the inhibition curve)
If the inhibition of the reaction is already >50% at the lowest concentration of the test compound, the IC50 is assigned “<lowest concentration tested” (usually <0.4 μM). If the inhibition of the reaction is still <50% at the highest concentration of the test compound, the IC50 is assigned “> highest concentration tested” (usually >50 μM).

human GPR40 receptor = human GPR40 receptor (Homo sapiens (Human), UniProt O14842); assay: IP1 accumulation measurements using the IPOne assay system; assay type: cell-based; details: 1321N1 cells stably expressing human GPR40, 1 h stimulation
Experimental: IP1 accumulation measurements using the IPOne assay system—1321N1 cells stably expressing human GPR40 receptor (Euroscreen, Belgium) are seeded 24 h before the assay in white 384-well plates in culture medium containing 10% FCS, 1% Na-Pyruvate and 400 μg/mL G418. IP1 is assayed according to the manufacturer's description (Cisbio Bioassays, France). In brief, the assay is started by substitution of the culture medium by stimulation buffer (Hepes 10 mM, CaCl2) 1 mM, MgCl2 0.5 mM, KCl 4.2 mM, NaCl 146 mM, glucose 5.5 mM and LiCl 50 mM, pH 7.4). Cells are stimulated for 1 h at 37° C., 5% CO2 by addition of the compounds that are diluted in stimulation buffer containing LiCl. Assays are stopped by adding HTRF-conjugates (IP1-d2 and Anti-IP1 cryptate Tb) and lysis buffer, provided by the manufacturer. After an incubation time of 1 h at room temperature plates are measured using an EnVision™, Perkin Elmer. The obtained fluorescence ratios at 665/615 […] are then used to calculate the pEC50 values using Assay Explorer 3.3 Software (Accelrys, Inc.) by interpolation using an IP1 reference curve and subsequent sigmoidal curve fitting allowing for a variable hill slope.

Chain of cytochrome P450 2C9-isoenzyme (P11712 whole entry): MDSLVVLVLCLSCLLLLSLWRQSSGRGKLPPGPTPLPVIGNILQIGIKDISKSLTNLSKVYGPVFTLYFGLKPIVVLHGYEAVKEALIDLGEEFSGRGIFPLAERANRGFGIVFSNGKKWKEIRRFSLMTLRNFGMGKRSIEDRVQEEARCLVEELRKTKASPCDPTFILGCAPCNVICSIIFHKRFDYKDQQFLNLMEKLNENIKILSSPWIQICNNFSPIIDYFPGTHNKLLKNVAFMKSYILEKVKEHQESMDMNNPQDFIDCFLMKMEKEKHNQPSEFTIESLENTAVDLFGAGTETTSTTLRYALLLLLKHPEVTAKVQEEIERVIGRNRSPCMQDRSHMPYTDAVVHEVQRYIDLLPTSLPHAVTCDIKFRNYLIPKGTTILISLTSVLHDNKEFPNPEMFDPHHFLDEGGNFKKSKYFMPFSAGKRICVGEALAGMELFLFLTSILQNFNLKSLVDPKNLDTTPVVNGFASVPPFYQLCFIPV
Chain of human GPR40 receptor (O14842 whole entry): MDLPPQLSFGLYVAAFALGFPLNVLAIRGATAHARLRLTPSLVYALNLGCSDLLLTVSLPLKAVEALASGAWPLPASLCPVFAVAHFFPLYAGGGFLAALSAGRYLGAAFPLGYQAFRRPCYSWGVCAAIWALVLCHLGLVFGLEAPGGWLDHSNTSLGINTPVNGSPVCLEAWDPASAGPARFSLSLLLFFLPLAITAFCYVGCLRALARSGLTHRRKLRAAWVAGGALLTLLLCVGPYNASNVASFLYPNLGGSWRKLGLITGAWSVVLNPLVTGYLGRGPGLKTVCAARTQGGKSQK
Chain of cytochrome P450 2C8-isoenzyme (P10632 whole entry): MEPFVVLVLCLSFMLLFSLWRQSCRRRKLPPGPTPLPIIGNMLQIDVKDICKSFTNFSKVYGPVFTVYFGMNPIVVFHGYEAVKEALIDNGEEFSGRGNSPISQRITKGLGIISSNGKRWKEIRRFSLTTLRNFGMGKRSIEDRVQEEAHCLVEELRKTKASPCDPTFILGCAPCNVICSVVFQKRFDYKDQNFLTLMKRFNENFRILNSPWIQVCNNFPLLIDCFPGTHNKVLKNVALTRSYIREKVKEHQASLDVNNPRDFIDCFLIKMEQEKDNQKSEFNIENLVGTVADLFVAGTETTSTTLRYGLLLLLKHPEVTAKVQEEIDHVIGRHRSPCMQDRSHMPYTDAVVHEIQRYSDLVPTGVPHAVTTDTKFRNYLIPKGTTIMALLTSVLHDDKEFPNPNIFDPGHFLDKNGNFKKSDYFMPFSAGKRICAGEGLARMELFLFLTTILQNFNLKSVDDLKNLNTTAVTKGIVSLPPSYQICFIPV

Cc1cc(OCCC(C)(C)O)cc(C)c1-c1ccc(F)c2c1CC[C@H]2Nc1cc2c(cn1)[C@H](CC(=O)O)CO2 [Example 1, ((S)-6-{(R)-7-Fluoro-4-[4-(3-hydroxy-3-methyl-butoxy)-2,6-dimethyl-phenyl]-indan-1-ylamino}-2,3-dihydro-furo[3,2-c]pyridin-3-yl)-acetic Acid]
pIC50 [1]: < 4.30
solubility at 24 h (Aqueous solubility): > 94 µg/mL
pIC50 [2]: 4.52
pEC50 (human GPR40 receptor): 7.82

Cc1cc(-c2nnn(C)n2)cc(C)c1-c1ccc(F)c2c1CC[C@H]2Nc1cc2c(cn1)[C@H](CC(=O)O)CO2 [Example 5, ((S)-6-{(R)-4-[2,6-Dimethyl-4-(2-methyl-2H-tetrazol-5-yl)-phenyl]-7-fluoro-indan-1-ylamino}-2,3-dihydro-furo[3,2-c]pyridin-3-yl)-acetic Acid]
pIC50 [1]: < 4.30
solubility at 24 h (Aqueous solubility): 47 µg/mL (≈ 91.3 µM)
pIC50 [2]: 4.46
pEC50 (human GPR40 receptor): 8.22
